Assay results published in patent US8951512B2, “Methods for treating bone disorders by characterizing and restoring mammalian bacterial microbiota” (New York University, priority 2010, dated 2015).

Assays:
PPARγ = experiment: Hepatic qPCR normalized to GAPDH; assay type: in vivo, mice; details: liver qPCR, vs control
Source text: (§1) Total DNA and total RNA was extracted from the mouse liver by the Wizard® Genomic DNA purification Kit (Promega) and RNeasy Mini Kit (Qiagen), respectively, according to the manufacturers instructions. Total RNA was reverse transcribed to cDNA using the Verso™ cDNA Synthesis Kit (Thermo Scientific). To generate standards for each target gene expression analysis, the DNA or cDNA region of interest was PCR-amplified and the PCR product was cloned using the pGEM-Teasy vector system (Promega). qPCR was performed with a LightCycler 480 SYBR Green I Master (Roche) and run in a LightCycler 480 system (Roche). Target mRNA was normalized to GAPDH mRNA as an internal control in each sample.

[1] = test system: fatty acid translocase (FAT, CD36); experiment: Hepatic qPCR normalized to GAPDH; assay type: in vivo, mice; details: liver qPCR, vs control
Source text: as §1

SREBP1c = experiment: Hepatic qPCR normalized to GAPDH; assay type: in vivo, mice; details: liver, vs control; same direction as microarrays
Source text: as §1

[2] = test system: insulin receptor substrate 2 (IRS-2); experiment: Hepatic qPCR normalized to GAPDH; assay type: in vivo, mice; details: liver, vs control; same direction as microarrays
Source text: as §1

[3] = Sub-therapeutic antibiotic treatment (STAT) in drinking water: growth and body composition by weighing, DEXA and MRI; assay type: in vivo, C57BL6/J mice; details: vs control
Procedure: Low dose penicillin (6.67 mg/L) was administered in the drinking water of C57BL6/J mice either at birth (day 0, antibiotics initially received through maternal milk) or at weaning (day 28); control mice received no antibiotics. All mice were given ad libitum access to food and water, and mice were fed either standard chow (13.5% kcal from fat) or high fat diet (45% kcal from fat). Mice were weighed daily and body composition was analyzed by dual energy x-ray absorptiometry (DEXA) and magnetic resonance imaging (MRI.)
C57B6 breeder mice (F0) were obtained at 6 weeks of age from Jackson Laboratory. One male was mated with 2 females to create the F1 generation. Males and females were separated after pregnancy was detected. On day 14 of pregnancy, STAT breeder females were exposed to penicillin so that their offspring would be exposed to antibiotics from birth; control breeders had no antibiotic exposure. From the F1 generation, penicillin-treated and control mice at or near the median weight of their group were selected at 12 weeks of age to become breeders, and to produce the F2 generation. Breeder mice and offspring were maintained on their current treatment (either control or penicillin). […]
The litters were monitored closely and the following information was collected: mating pairs, date of birth, litter number, number born, number weaned, animal number, gender, and generation number. […]
Mice were anesthetized using isofluorane. Total body mass, lean mass, fat mass, body fat percentage, and bone mineral density were measured using the Lunar PIXImus densitometer. […]
Mice were anaesthetized with isofluorane. Body temperature and breathing rate were continuously monitored throughout the scan, and body temperature was maintained by flowing warm air through the coil. […] Total body fat percentage was calculated by merging the two images to generate a fat fraction image. […] The fat volume was calculated by multiplying total volume of the VOI by the mean fat %. To determine liver adiposity, 5 consecutive slices of the liver were traced to generate a liver VOI, and the average percent fat was recorded. […]

[4] = test system: butyryl coA transferase (BCoAT) gene; experiment: Degenerate quantitative PCR for BCoAT on fecal specimens; assay type: in vivo, mice
Procedure: (§2) Quantitative PCR assays to assess for taxa of interest were performed on a Rotor Gene 3000 quantitative PCR cycler using the LightCycler FastStart DNA Master PLUS SYBR Green I kit (Roche, Indianapolis Ind.) according to the manufacturer's instructions. Quantitative assays to assess total microbial census were performed for Bacteria using 16S rRNA and Fungi using ITS sequences. Quantitative assays were also performed for butyryl CoA transferase (BCoAT) and formyltetrahydrofolate synthetase (FTHFS). Values were normalized using total Bacterial 16S copies prior to analyses.
(§3) Because of the central role of short-chain fatty acid synthesis in colonic metabolism (Wong et al., J Clin Gastroenterol 40, 235-243 (2006)), the effect of STAT exposure on the prokaryotic genes butyryl coA transferase (BCoAT) and formyltetrahydrofolate synthetase (FTHFS) that play roles in butyrate and acetate synthesis was examined Degenerate quantitative PCRs for BCoAT and FTHFS (primers listed in Table 1) were performed on fecal specimens in STAT (penicillin) and control mice. […] These findings provide evidence that STAT exposure perturbs not only GI microbiome, composition but also abundance of genes critical to host energy homeostasis.

liver gene expression = experiment: Hepatic gene expression profiling by microarray; assay type: in vivo, mice
Source text: as §1
Expression profiling of the STAT and control animal groups (n=6 each) was performed using the Affymetrix Genechip system (Affymetrix, Santa Clara, Calif.). Total RNA quality and quantity were determined using the Agilent 2100 Bioanalyzer and Nanodrop ND-1000. Total RNA (100 ng) was used to prepare cDNA following the Affymetrix 3′IVT Express Kit labeling protocol (Affymetrix). Standardized array processing procedures recommended by Affymetrix were performed, including hybridization, fluidics processing and scanning of the Affymetrix MG-430 2.0 arrays. GeneSpring GX11 software (Agilent Technologies, Santa Clara, Calif.) was used to normalize the raw data (Affymetrix CEL files) by Robust Multichip Average algorithm (RMA).

[5] = test system: formyltetrahydrofolate synthetase (FTHFS) gene; experiment: Degenerate quantitative PCR for FTHFS on fecal specimens; assay type: in vivo, mice; details: vs control
Procedure: as §2, §3

## penicillin
PPARγ
  PPARγ normalized gene counts: significantly higher
[1]
  FAT normalized gene counts: significantly higher
SREBP1c
  SREBP1c qPCR result: not statistically significant
[2]
  IRS-2 qPCR result: not statistically significant
[3]; F1 generation, female mice
  Weight at 21 days: significantly decreased
[3]; F1 generation, sex not given
  Weight at 21 days: no difference
[3]; F2 generation, both females and males
  Weight at 21 days: significantly increased
[4]; at 3 weeks
  BCoAT gene copies: 193±22 normalized copies
[4]; by 7 weeks, vs control
  BCoAT gene copies: normalized
Liver gene expression; >45,000 genes surveyed, vs control
  Genes significantly up- or down-regulated by t-test or PTM: 466 genes
Liver gene expression; t-test and PTM
  Genes significantly differed from controls by both tests: 397 genes
Liver gene expression; vs control
  Genes differentially expressed, fatty acid metabolism pathways: 22 genes
  Genes differentially expressed, lipid metabolic processes: 47 genes
[5]; at 3 weeks
  FTHFS gene copies: no significant differences
[5]; by 7 weeks
  FTHFS gene copies: significantly higher
